Experimental data as given in patent publication US7375096B1, “Method of preparing a supramolecular complex containing a therapeutic agent and a multi-dimensional polymer network” (California Institute of Technology, priority 1998, dated 2008).

Legend:
DNA = test: Pentalysine DNA binding with crosslinker DTBP and reducing agent TCEP (agarose gel)
Protocol: Pentalysine was added to DNA for 15 minutes. Crosslinker DTBP was then added to the solution mixture for over 60 minutes. TCEP was added and an agarose gel was run after 30 minutes. […] Thus, crosslinking with DTBP increased the affinity of pentalysine to DNA.

Protocol for BHK-21 cells: BHK-21 cells were plated in 24 well plates at a cell density of 60,000 cells/well 24 hours before transfection. […] Media solution containing the DNA/polymer complexes was added to cultured cells and replaced with fresh media after 24 hours of incubation at 37° C. The cells were lysed 48 hours after transfection. […] Cell lysate was also used to determine cell viability by the Lowry protein assay.

Substance: β-Cyclodextrin(cystamine)-DMS copolymer [copolymer 15]
- toxicity (cell viability, Lowry protein assay) (BHK-21 cells): No toxicity was observed

Substance: Pentalysine
- binding to DNA (DNA): not strong enough to bind to the DNA
